Measurements as given in ChEMBL document CHEMBL4507266, “Data for DCP probe BAY-784” (2021).

Columns and labels:
[1] = molecular target: Fibroblast growth factor receptor 1 (Homo sapiens) (UniProt P11362); settings: Compound concentration 1000.0 nM
[2] = molecular target: Tyrosine-protein kinase JAK1 (Homo sapiens) (UniProt P23458); settings: Compound concentration 1000.0 nM
[3] = molecular target: T1, Alpha-2A adrenergic receptor (Homo sapiens) (UniProt P08913); settings: Compound concentration 10.0 uM
T1 sequence (whole entry): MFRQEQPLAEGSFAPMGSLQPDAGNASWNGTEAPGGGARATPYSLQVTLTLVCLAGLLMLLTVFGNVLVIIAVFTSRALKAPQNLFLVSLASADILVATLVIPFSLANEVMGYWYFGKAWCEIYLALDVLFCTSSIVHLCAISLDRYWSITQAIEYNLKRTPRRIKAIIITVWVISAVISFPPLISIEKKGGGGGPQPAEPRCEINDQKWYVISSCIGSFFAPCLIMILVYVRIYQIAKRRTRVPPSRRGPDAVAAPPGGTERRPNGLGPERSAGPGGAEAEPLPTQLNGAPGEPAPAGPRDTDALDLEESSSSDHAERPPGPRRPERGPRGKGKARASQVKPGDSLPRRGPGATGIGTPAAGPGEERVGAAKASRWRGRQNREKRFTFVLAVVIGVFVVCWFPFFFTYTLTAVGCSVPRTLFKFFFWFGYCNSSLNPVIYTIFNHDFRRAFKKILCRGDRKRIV

[4] = molecular target: Beta-1 adrenergic receptor (Homo sapiens) (UniProt P08588); settings: Compound concentration 10.0 uM
Chain of Beta-1 adrenergic receptor (Homo sapiens) (P08588 whole entry, looked up): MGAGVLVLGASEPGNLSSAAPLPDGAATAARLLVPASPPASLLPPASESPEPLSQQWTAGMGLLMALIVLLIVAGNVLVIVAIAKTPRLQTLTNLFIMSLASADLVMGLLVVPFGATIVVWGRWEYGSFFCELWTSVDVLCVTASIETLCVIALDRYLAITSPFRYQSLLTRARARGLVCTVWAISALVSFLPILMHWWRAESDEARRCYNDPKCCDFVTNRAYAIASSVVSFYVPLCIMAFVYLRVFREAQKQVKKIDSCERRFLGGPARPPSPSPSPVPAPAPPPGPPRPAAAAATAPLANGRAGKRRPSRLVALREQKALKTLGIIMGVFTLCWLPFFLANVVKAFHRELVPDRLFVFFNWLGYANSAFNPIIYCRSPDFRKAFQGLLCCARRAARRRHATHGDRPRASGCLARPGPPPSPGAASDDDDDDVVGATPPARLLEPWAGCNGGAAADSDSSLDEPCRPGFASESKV

[5] = molecular target: Serine/threonine-protein kinase MRCK alpha (Homo sapiens) (UniProt Q5VT25); settings: Compound concentration 1000.0 nM
[6] = molecular target: Muscarinic acetylcholine receptor M3 (Homo sapiens) (UniProt P20309); settings: Compound concentration 10.0 uM
[7] = molecular target: Macrophage colony-stimulating factor 1 receptor (Homo sapiens) (UniProt P07333); settings: Compound concentration 1000.0 nM
Chain of Macrophage colony-stimulating factor 1 receptor (Homo sapiens) (P07333 whole entry): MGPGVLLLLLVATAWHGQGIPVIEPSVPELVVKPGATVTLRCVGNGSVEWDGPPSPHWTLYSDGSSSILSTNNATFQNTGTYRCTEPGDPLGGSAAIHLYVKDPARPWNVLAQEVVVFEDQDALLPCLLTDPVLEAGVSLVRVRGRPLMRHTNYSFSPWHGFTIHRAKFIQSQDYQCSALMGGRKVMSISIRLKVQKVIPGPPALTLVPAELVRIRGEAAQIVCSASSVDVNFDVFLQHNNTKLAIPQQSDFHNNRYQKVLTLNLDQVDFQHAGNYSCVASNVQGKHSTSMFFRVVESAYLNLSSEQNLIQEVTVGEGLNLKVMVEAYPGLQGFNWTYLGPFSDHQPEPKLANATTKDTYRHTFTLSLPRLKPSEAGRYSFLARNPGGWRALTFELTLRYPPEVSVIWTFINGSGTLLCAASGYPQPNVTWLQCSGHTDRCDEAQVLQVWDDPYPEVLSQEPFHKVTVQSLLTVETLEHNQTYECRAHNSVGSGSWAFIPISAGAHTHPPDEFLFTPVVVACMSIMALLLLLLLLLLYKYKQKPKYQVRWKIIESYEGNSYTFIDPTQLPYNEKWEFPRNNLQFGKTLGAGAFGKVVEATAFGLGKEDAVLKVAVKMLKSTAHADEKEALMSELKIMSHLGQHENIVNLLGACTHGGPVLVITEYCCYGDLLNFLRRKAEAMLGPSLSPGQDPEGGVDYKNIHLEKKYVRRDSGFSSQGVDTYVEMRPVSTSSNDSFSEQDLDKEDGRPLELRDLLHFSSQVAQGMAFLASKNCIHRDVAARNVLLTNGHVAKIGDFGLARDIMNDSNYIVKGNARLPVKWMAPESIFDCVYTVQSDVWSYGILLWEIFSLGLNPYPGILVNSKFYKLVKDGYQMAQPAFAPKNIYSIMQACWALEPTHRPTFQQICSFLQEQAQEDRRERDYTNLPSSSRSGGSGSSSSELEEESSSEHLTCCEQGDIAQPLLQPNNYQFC

[8] = molecular target: Mitogen-activated protein kinase 10 (Homo sapiens) (UniProt P53779); settings: Compound concentration 1000.0 nM
[9] = molecular target: Phosphorylase b kinase gamma catalytic chain, skeletal muscle/heart isoform (Homo sapiens) (UniProt Q16816); settings: Compound concentration 1000.0 nM
[10] = molecular target: Serine/threonine-protein kinase PLK2 (Homo sapiens) (UniProt Q9NYY3); settings: Compound concentration 1000.0 nM
[11] = molecular target: Myosin light chain kinase, smooth muscle (Homo sapiens) (UniProt Q15746); settings: Compound concentration 1000.0 nM
[12] = molecular target: Serine/threonine-protein kinase 36 (Homo sapiens) (UniProt Q9NRP7); settings: Compound concentration 1000.0 nM
[13] = molecular target: Death-associated protein kinase 3 (Homo sapiens) (UniProt O43293); settings: Compound concentration 1000.0 nM
[14] = molecular target: Mitogen-activated protein kinase kinase kinase 19 (Homo sapiens) (UniProt Q56UN5); settings: Compound concentration 1000.0 nM
[15] = molecular target: Serine/threonine-protein kinase haspin (Homo sapiens) (UniProt Q8TF76); settings: Compound concentration 1000.0 nM
[16] = molecular target: Serine/threonine-protein kinase Chk1 (Homo sapiens) (UniProt O14757); settings: Compound concentration 1000.0 nM
[17] = molecular target: 5-hydroxytryptamine receptor 1B (Homo sapiens) (UniProt P28222); settings: Compound concentration 10.0 uM
[18] = molecular target: Serine/threonine-protein kinase LATS1 (Homo sapiens) (UniProt O95835); settings: Compound concentration 1000.0 nM
[19] = molecular target: Sigma non-opioid intracellular receptor 1 (Homo sapiens) (UniProt Q99720); settings: Compound concentration 10.0 uM
Chain of Sigma non-opioid intracellular receptor 1 (Homo sapiens) (Q99720 whole entry): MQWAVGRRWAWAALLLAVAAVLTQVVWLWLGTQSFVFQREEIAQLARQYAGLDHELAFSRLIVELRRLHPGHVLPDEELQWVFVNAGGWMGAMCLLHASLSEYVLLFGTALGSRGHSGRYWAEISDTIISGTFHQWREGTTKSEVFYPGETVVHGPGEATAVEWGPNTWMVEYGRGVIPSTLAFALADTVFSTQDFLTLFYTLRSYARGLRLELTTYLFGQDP

[20] = molecular target: Maternal embryonic leucine zipper kinase (Homo sapiens) (UniProt Q14680); settings: Compound concentration 1000.0 nM
Chain of Maternal embryonic leucine zipper kinase (Homo sapiens) (Q14680 whole entry, looked up): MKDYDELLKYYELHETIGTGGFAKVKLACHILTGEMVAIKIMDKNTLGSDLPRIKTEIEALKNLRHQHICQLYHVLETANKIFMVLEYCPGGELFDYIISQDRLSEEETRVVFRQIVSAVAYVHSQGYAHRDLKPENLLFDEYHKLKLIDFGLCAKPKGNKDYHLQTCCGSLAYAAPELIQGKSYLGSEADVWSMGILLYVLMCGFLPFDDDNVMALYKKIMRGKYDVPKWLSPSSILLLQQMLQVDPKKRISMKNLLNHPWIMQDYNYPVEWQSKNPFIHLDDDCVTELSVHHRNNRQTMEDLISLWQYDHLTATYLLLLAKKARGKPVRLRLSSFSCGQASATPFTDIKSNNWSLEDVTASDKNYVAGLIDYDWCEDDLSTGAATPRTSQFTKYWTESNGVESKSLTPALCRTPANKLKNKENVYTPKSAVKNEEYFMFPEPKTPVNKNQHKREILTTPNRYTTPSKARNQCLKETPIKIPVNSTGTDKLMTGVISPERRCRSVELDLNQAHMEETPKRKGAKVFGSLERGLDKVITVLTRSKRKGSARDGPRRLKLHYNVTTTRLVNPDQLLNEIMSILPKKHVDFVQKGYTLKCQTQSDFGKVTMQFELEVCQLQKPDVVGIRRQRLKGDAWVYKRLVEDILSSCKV

[21] = molecular target: TRAF2 and NCK-interacting protein kinase (Homo sapiens) (UniProt Q9UKE5); settings: Compound concentration 1000.0 nM
[22] = molecular target: Phosphatidylinositol 3-kinase catalytic subunit type 3 (Homo sapiens) (UniProt Q8NEB9); settings: Compound concentration 1000.0 nM
[23] = molecular target: Interferon-induced, double-stranded RNA-activated protein kinase (Homo sapiens) (UniProt P19525); settings: Compound concentration 1000.0 nM
Chain of Interferon-induced, double-stranded RNA-activated protein kinase (Homo sapiens) (P19525 whole entry): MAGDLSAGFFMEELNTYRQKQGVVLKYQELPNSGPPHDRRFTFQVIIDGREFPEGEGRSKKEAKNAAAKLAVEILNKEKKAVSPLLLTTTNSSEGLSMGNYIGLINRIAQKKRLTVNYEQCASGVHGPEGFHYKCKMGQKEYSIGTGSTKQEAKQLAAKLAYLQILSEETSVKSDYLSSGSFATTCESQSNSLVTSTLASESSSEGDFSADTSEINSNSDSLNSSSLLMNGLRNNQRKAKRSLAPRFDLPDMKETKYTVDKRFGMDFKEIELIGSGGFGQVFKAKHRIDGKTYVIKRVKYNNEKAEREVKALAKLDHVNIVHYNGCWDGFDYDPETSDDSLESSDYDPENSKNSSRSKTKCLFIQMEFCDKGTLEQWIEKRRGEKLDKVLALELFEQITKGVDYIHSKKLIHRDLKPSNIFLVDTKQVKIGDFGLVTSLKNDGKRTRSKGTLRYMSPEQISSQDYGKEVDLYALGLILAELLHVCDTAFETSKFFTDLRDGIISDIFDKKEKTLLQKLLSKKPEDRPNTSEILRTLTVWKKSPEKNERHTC

[24] = molecular target: Cyclin-dependent kinase-like 5 (Homo sapiens) (UniProt O76039); settings: Compound concentration 1000.0 nM
[25] = molecular target: Serine/threonine-protein kinase Nek1 (Homo sapiens) (UniProt Q96PY6); settings: Compound concentration 1000.0 nM
[26] = molecular target: D(1B) dopamine receptor (Homo sapiens) (UniProt P21918); settings: Compound concentration 10.0 uM
[27] = molecular target: Serine/threonine-protein kinase PAK 3 (Homo sapiens) (UniProt O75914); settings: Compound concentration 1000.0 nM
[28] = molecular target: Dual specificity mitogen-activated protein kinase kinase 3 (Homo sapiens) (UniProt P46734); settings: Compound concentration 1000.0 nM
[29] = tested on: ALK tyrosine kinase receptor (Homo sapiens), Q9UM73 [L1196M]; settings: Compound concentration 1000.0 nM
[30] = molecular target: Ephrin type-A receptor 8 (Homo sapiens) (UniProt P29322); settings: Compound concentration 1000.0 nM
[31] = molecular target: Mitotic checkpoint serine/threonine-protein kinase BUB1 (Homo sapiens) (UniProt O43683); settings: Compound concentration 1000.0 nM
[32] = molecular target: Protein-tyrosine kinase 2-beta (Homo sapiens) (UniProt Q14289); settings: Compound concentration 1000.0 nM
Chain of Protein-tyrosine kinase 2-beta (Homo sapiens) (Q14289 whole entry, looked up): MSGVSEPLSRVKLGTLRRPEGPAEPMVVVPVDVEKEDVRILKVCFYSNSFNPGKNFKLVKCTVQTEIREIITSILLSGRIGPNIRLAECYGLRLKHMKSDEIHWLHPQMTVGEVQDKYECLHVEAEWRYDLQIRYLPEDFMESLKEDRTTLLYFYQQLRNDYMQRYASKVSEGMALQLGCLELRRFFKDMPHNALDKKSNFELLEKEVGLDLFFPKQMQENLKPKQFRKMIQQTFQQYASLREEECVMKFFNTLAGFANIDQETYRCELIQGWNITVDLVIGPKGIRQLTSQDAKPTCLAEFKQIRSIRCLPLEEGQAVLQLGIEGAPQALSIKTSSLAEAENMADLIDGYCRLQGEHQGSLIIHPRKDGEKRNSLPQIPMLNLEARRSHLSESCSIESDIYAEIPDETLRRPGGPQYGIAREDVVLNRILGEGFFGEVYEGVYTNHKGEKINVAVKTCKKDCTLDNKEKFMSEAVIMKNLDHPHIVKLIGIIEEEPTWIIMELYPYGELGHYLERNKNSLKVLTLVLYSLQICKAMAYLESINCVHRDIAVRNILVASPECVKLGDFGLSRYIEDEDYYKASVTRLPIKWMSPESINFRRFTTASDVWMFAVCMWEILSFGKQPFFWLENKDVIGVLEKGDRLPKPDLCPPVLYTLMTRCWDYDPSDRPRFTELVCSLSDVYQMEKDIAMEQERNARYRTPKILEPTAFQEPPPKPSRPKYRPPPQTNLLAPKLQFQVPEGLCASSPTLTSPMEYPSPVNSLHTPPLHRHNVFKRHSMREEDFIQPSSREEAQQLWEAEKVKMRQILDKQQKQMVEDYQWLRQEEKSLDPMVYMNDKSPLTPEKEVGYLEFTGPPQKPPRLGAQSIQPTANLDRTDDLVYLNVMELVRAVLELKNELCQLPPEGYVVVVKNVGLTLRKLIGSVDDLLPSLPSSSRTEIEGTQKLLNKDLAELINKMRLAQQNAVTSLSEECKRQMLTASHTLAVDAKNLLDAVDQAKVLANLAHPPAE

[33] = molecular target: Cyclin-dependent kinase 4 (Homo sapiens) (UniProt P11802); settings: Compound concentration 1000.0 nM
[34] = molecular target: Serine/threonine-protein kinase Nek10 (Homo sapiens) (UniProt Q6ZWH5); settings: Compound concentration 1000.0 nM
[35] = molecular target: Tyrosine-protein kinase ITK/TSK (Homo sapiens) (UniProt Q08881); settings: Compound concentration 1000.0 nM
Chain of Tyrosine-protein kinase ITK/TSK (Homo sapiens) (Q08881 whole entry): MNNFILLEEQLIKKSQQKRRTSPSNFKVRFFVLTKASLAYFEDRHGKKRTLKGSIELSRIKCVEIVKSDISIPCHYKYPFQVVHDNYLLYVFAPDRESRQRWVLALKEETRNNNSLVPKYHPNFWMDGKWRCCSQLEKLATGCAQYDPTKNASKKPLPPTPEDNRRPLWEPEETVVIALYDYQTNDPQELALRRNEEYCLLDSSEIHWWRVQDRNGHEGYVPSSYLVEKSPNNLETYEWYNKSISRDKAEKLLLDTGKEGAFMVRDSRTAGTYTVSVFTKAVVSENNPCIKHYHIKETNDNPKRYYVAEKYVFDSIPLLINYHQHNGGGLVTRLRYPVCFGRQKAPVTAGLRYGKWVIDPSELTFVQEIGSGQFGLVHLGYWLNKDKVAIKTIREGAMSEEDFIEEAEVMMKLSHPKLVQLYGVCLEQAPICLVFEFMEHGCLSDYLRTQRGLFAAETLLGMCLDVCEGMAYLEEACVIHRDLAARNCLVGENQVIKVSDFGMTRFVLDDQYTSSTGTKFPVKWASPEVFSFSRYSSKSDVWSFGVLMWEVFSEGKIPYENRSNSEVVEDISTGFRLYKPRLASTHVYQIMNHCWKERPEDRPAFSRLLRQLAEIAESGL

[36] = molecular target: Receptor-interacting serine/threonine-protein kinase 1 (Homo sapiens) (UniProt Q13546); settings: Compound concentration 1000.0 nM
[37] = molecular target: Fibroblast growth factor receptor 3 (Homo sapiens) (UniProt P22607); settings: Compound concentration 1000.0 nM
[38] = molecular target: RAC-beta serine/threonine-protein kinase (Homo sapiens) (UniProt P31751); settings: Compound concentration 1000.0 nM
Chain of RAC-beta serine/threonine-protein kinase (Homo sapiens) (P31751 whole entry, canonical isoform): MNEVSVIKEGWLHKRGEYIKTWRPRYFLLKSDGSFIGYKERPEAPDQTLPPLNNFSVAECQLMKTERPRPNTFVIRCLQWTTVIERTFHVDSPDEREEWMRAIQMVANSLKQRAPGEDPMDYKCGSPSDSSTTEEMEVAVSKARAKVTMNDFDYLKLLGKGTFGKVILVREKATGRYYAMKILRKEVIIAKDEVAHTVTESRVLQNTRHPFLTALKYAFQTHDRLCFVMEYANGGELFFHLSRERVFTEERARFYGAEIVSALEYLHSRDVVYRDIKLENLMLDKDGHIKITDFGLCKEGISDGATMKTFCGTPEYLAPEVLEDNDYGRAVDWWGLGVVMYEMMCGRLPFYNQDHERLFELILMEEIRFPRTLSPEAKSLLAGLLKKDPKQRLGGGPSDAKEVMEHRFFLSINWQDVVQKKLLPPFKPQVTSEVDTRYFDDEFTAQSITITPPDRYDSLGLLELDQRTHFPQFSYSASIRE

[39] = molecular target: Phosphatidylinositol 4,5-bisphosphate 3-kinase catalytic subunit delta isoform (Homo sapiens) (UniProt O00329); settings: Compound concentration 1000.0 nM

Structure (SMILES) | residual activity [1] | residual activity [2] | inhibition [3] | inhibition [4] | residual activity [5] | inhibition [6] | residual activity [7] | residual activity [8] | residual activity [9] | residual activity [10] | residual activity [11] | residual activity [12] | residual activity [13] | residual activity [14] | residual activity [15] | residual activity [16] | inhibition [17] | residual activity [18] | inhibition [19] | residual activity [20] | also measured
O=C(NCc1ncc(C(F)(F)F)cc1Cl)c1ccc2c(c1)C1(CCS(=O)(=O)CC1)[C@H](C1CC1)N2S(=O)(=O)c1ccc(F)cc1 [BAY-784] | 49% | 86% | -5.62% | -0.08% | 100% | 18.1% | 100% | 88% | 100% | 76% | 77% | 100% | 90% | 73% | 87% | 100% | -6.19% | 91% | 17.8% | 54% | residual activity [21]: 100%; residual activity [22]: 86%; residual activity [23]: 100%; residual activity [24]: 78%; residual activity [25]: 100%; inhibition [26]: 19.1%; residual activity [27]: 91%; residual activity [28]: 71%; residual activity [29]: 76%; residual activity [30]: 97%; residual activity [31]: 68%; residual activity [32]: 100%; residual activity [33]: 86%; residual activity [34]: 94%; residual activity [35]: 100%; residual activity [36]: 100%; residual activity [37]: 100%; residual activity [38]: 100%; residual activity [39]: 67%
O=C(NCc1ncc(C(F)(F)F)cc1Cl)c1ccc2c(c1)C1(CCS(=O)(=O)CC1)[C@@H](C1CC1)N2S(=O)(=O)c1ccc(F)cc1 [BAY-786] | 100% | 85% | 6.57% | -1.82% | 100% | 14.4% | 74% | 73% | 100% | 74% | 74% | 100% | 89% | 69% | 77% | 100% | -2.74% | 97% | 37.6% | 100% | residual activity [21]: 71%; residual activity [22]: 89%; residual activity [23]: 97%; residual activity [24]: 67%; residual activity [25]: 96%; inhibition [26]: -0.49%; residual activity [27]: 89%; residual activity [28]: 73%; residual activity [29]: 87%; residual activity [30]: 100%; residual activity [31]: 1.9%; residual activity [32]: 100%; residual activity [33]: 82%; residual activity [34]: 83%; residual activity [35]: 100%; residual activity [36]: 30%; residual activity [37]: 100%; residual activity [38]: 100%; residual activity [39]: 67%
